According to the supplement of paper PMC10307832:

Assays:
Assay in all cases: relative viability (nuclei count vs DMSO), 5 days (fraction); higher = more cells survive
Apatinib + Alpelisib = compound: N#CC1(c2ccc(NC(=O)c3cccnc3NCc3ccncc3)cc2)CCCC1 [Apatinib] + Cc1nc(NC(=O)N2CCC[C@H]2C(N)=O)sc1-c1ccnc(C(C)(C)C(F)(F)F)c1 [Alpelisib] (partner 2 µM)
Summary of the method: (§1)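 Nuclei were stained with Hoechst during a one-step fixation (final 0.05% Triton X-100, 1% formaldehyde, 1 ug/ml Hoechst) carried out 5 days after dosing, then counted on 4× images. The cells, lung cancer lines in 1536-well plates, had been dosed by pin tool the day after seeding with one drug alone or a fixed anchor-drug dose plus five library-drug doses (not always all listed) in √10 steps. Relative viability is the nuclei count in treated wells divided by that in vehicle wells, and each value is the median of duplicate plates.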

Metformin + Palbociclib = compound: CN(C)C(=N)NC(=N)N [Metformin] + CC(=O)c1c(C)c2cnc(Nc3ccc(N4CCNCC4)cn3)nc2n(C2CCCC2)c1=O [Palbociclib] (partner 0.5 µM)
Summary of the method: as §1

Apatinib + Lapatinib = compound: N#CC1(c2ccc(NC(=O)c3cccnc3NCc3ccncc3)cc2)CCCC1 [Apatinib] + CS(=O)(=O)CCNCc1ccc(-c2ccc3ncnc(Nc4ccc(OCc5cccc(F)c5)c(Cl)c4)c3c2)o1 [Lapatinib] (partner 2 µM)
Summary of the method: as §1

Apatinib + Bortezomib = compound: N#CC1(c2ccc(NC(=O)c3cccnc3NCc3ccncc3)cc2)CCCC1 [Apatinib] + CC(C)C[C@H](NC(=O)[C@H](Cc1ccccc1)NC(=O)c1cnccn1)B(O)O [Bortezomib] (partner 0.002 µM)
Summary of the method: as §1

NCI-H460 gave a relative viability (Apatinib + Alpelisib; first compound 0.08 µM) of 0.557, a relative viability (Apatinib + Alpelisib; first compound 0.253 µM) of 0.478 and a relative viability (Apatinib + Alpelisib; first compound 0.8 µM) of 0.475. For the same cell line, the relative viability (Apatinib + Alpelisib; first compound 2.53 µM) was 0.498, the relative viability (Apatinib + Alpelisib; first compound 8 µM) was 0.479 and the relative viability (Metformin + Palbociclib; first compound 31.62 µM) was 0.191. The relative viability (Metformin + Palbociclib; first compound 100 µM) was 0.249, the relative viability (Metformin + Palbociclib; first compound 316.23 µM) was 0.105 and the relative viability (Metformin + Palbociclib; first compound 1000 µM) was 0.148. For the same cell line, the relative viability (Apatinib + Lapatinib; first compound 0.08 µM) was 0.915, the relative viability (Apatinib + Lapatinib; first compound 0.253 µM) was 0.93 and the relative viability (Apatinib + Lapatinib; first compound 0.8 µM) was 0.796. It also gave a relative viability (Apatinib + Lapatinib; first compound 2.53 µM) of 0.905, a relative viability (Apatinib + Lapatinib; first compound 8 µM) of 0.777 and a relative viability (Apatinib + Bortezomib; first compound 0.08 µM) of 1.11. It also gave a relative viability (Apatinib + Bortezomib; first compound 0.253 µM) of 1.03, a relative viability (Apatinib + Bortezomib; first compound 0.8 µM) of 0.888 and a relative viability (Apatinib + Bortezomib; first compound 2.53 µM) of 0.98. For the same cell line, the relative viability (Apatinib + Bortezomib; first compound 8 µM) was 1.01.
